# Experimental data published in patent US7833985B2, “Angiotensin-converting enzyme inhibitory peptides” (Suntory Holdings Limited, priority 2003, dated 2010).
# Target: T1, ACE from rabbit lung (Oryctolagus cuniculus, UniProt P12822)
# T1 construct: ACE from rabbit lung (Sigma); purchased Sigma; host or cells: rabbit lung
# T1 sequence (P12822 34-1310): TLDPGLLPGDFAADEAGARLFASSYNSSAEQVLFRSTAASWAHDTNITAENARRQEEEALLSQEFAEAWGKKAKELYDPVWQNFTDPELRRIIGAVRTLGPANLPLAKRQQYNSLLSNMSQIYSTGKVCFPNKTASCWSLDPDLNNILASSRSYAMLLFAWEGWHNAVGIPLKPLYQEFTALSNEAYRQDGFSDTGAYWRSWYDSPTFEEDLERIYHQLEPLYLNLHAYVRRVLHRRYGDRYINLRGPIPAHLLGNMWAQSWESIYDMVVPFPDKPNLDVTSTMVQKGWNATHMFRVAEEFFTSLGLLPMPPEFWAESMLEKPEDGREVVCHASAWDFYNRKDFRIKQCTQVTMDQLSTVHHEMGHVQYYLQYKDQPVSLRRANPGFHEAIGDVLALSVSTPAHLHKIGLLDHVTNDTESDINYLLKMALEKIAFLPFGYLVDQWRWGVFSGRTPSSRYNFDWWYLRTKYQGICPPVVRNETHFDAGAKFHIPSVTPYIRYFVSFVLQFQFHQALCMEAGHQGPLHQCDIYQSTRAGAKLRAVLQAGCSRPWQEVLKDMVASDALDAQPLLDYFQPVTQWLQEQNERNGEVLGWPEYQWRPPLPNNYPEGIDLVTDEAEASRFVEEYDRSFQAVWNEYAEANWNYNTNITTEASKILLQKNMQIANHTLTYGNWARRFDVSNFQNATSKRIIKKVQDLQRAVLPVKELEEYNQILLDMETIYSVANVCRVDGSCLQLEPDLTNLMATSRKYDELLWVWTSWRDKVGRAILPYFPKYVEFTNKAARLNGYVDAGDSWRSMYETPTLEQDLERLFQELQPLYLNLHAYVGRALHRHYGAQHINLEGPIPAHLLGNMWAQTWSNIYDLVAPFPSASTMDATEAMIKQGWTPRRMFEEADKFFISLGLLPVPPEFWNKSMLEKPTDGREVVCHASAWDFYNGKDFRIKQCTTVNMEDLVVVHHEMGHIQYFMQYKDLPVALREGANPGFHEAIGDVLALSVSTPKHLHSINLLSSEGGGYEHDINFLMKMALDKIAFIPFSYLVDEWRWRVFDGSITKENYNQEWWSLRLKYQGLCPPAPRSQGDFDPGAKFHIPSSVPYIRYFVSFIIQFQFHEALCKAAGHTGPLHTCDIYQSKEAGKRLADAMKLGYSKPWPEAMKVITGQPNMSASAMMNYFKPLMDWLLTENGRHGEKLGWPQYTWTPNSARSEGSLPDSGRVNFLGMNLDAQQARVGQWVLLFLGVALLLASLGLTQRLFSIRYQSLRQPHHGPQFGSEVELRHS
# Test: ACE inhibitory activity (IC50), fluorometric Bz-Gly-His-Leu hydrolysis
# Format: biochemical
# Conditions: peptide purified from thermolysin digestion product of sesame protein; 5 μl portion of each fraction
# Method: In the present invention, the ACE inhibitory activity (IC50) was measured in accordance with the following method.
# 5 μl of a sample containing the peptide of the invention was pipetted into a 96-well microplate. After adding 25 μl of the buffer and 10 μl of the enzyme, the mixture was thoroughly stirred and incubated at 37° C. for 5 minutes. After adding 10 μl of the substrate, the mixture was reacted at 37° C. for 30 minutes. Then the reaction was ceased by adding 40 μl of 0.1 N NaOH. […] Then the amount of His-Leu formed by the hydrolysis by ACE was determined by exciting (at 355 nm) the fluorescent substance formed by the reaction between the amino group in the histidine residue and o-phthalaldehyde and measuring the fluorescence wavelength at 460 nm. Then the percentage inhibition by the peptide of the invention was determined in accordance with the following equation and the ACE inhibitory activity (IC50) was calculated. Percentage inhibition={1−(A−a)/(B−b)}×100 • A: Measurement of fluorescence when the sample was added. • a: Measurement of fluorescence when the sample was added and the buffer was added as a substitute for the enzyme. • B: Measurement of fluorescence when distilled water was added as a substitute for the sample. • b: Measurement of fluorescence when distilled water was added as a substitute for the sample and the buffer was added as a substitute for the enzyme.
substance,measurement,value
Ile-Val-Tyr,ACE inhibitory activity of the C30 HPLC fractions identified as the peptide,strong ACE inhibitory activities
